Experimental data as given in paper PMC8136485, “Were Ancestral Proteins Less Specific?” (Molecular Biology and Evolution, 2021).
Ends that are not written are not given here. * marks the point of attachment. 5FAM = O=C1OC2(c3ccc(O)cc3Oc3cc(O)ccc32)c2ccc(C(=O)*)cc21

Columns and labels:
hA5 (human S100A5) [1] = biological target: T1, hA5 (human S100A5) (Homo sapiens, UniProt P33763); test: Fluorescence polarization, displacement of 5FAM probe peptide; assay type: binding; details: displacement of 5FAM-labelled probe, 50 mM TES, 100 mM NaCl, 0.01% Tween-20, pH 7.4, 2.4-4.2 µM protein with equal probe, technical triplicate, corrected for probe
T1 construct: His tag with TEV protease cleavage site (N, cleaved yes); made in house; host or cells: Rosetta E. coli (DE3) pLysS
T1 sequence (P33763 1-92): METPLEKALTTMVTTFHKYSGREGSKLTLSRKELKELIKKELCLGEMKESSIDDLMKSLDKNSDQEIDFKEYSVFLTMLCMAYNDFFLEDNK
Text: (§1) To mimic the phage display experiment, we measured binding by displacement of a fluorescently labeled probe peptide. For our probe, we used the competitor peptide from the phage display experiment with the addition of an N-terminal 5-FAM fluorophore (fig. 3A). […] We could then measure fluorescence polarization of the probe peptide as a function of increasing concentrations of unlabeled peptide. A peptide that binds at the same site as the probe will displace the probe and thereby change the fluorescence polarization.
(§2) We did the fluorescence polarization experiments in 50 mM TES, 100 mM NaCl, and 0.01% Tween-20, pH 7.4, thus matching the phage display experimental buffer. We ordered all nine test peptides and the probe peptide in milligram quantities at 95% purity (Genscript). For the probe peptide, we used “5FAM-[…],” where 5FAM indicates an N-terminally linked 5-carboxyfluorescein moiety. […] The only exception was […], which we dissolved in ddH2O .
(§3) We measured fluorescence anisotropy using a SpectraMax i3 plate reader (Molecular Devices) with 96-well black plates (Corning). Prior to reading each plate, we shook for 5 s and then acquired with 500 ms integration time. Prior to the set of experiments, we optimized detector height and calibrated the plate’s xy position to maximize signal. We then kept this calibration throughout the set of experiments. For each experiment, we recorded both vertical (vv) and horizontal (vh) emission channels and then converted to arbitrary polarization units by: (5) R=vv−Gvh/vv+2Gvh with G set to 1.0. Titrations were done by serial dilution through conditions on individual plates, followed by measurement of all wells. We did all measurements in technical triplicate. We used custom software to programmatically remove technical replicate outliers.
(§4) For our production experiments, we added increasing amounts of competitor peptide to wells with between 2.4 and 4.2 µM protein (monomer). Each well also contained probe peptide at the same concentration as the protein. We selected these concentrations to maximize the amount of signal change upon addition of competitor peptide KD,probe . We calculated the expected signal change by: (7) ΔPpredicted=ΔPmax×[MX]/[X]T where ΔPmax=0.135 (as determined by our initial fits to extract probe peptide KD,probe ), [X]T was the total probe concentration, and [MX] was the concentration of the probe/protein complex prior to adding competitor peptide. We calculated [MX] by: (8) [MX]=([X]T+[M]T+KD,probe)±([X]T+[M]T+KD,probe)^2−4[X]T[M]T/2 where [M]T was the total protein concentration.
(§5) Prior to fitting a binding model to each curve, we converted it from polarization to fractional saturation. We did so by first fitting the single-site binding model to the data to obtain an estimate of the initial polarization (P0) for the protein/peptide pair. We then subtracted this value of P0 to obtain a baseline-subtracted polarization. We then divided the baseline-subtracted polarization by ΔPpredicted , yielding a fractional saturation (θ).
(§6) We then fit a reduced form of the single-site binding model to the data: (9) θ=[protein]/[protein]+KD,apparent
(§7) Finally, we corrected the resulting KD,apparent to account for the effect of the competitor peptide ([Hulme and Trevethick 2010]): (10) KD,peptide=KD,apparent/1+[X]T*(1−δ/2)/KD,probe+δ/(1−δ) where [X]T is the total probe peptide concentration and δ=[MX]/[X]T .

hA6 (human S100A6) [2] = biological target: T2, hA6 (human S100A6) (Homo sapiens, UniProt P06703); test: as above; assay type: binding; details: displacement of 5FAM-labelled probe, 50 mM TES, 100 mM NaCl, 0.01% Tween-20, pH 7.4, 2.4-4.2 µM protein with equal probe, technical triplicate, corrected for probe
T2 construct: His tag with TEV protease cleavage site (N, cleaved yes); made in house; host or cells: Rosetta E. coli (DE3) pLysS
Text: as §1, §2, §3, §4, §5, §6, §7

hA5 = test: Fluorescence polarization, direct titration of probe peptide with protein; assay type: binding, human; details: 0.03 μM probe, 0 to ≈200 μM protein, 2 mM CaCl2, then 5 mM EDTA added
Text: as §1
(§8) We fit the curve to a single-site binding model: (6) P([protein])∼ΔPmax[protein]/[protein]+KD,probe+P0 where P0 is the polarization of the peptide in the absence of protein, ΔPmax is the change in signal from unbound peptide to bound to the protein, and KD,probe is the probe dissociation constant. After recording the titration curve in the presence of CaCl2, we added 5 mM EDTA to all wells and remeasured the curve.
(§9) Fig S6: Binding of /f_luorescent probe peptide is calcium dependent. Panel show measured /f_luorescence anisotropy for the peptide 5FAM- GFDWR […] in the presence of […]
(§10) increasing protein concentration. Probe concentration was 0.03 uM. Proteins are hA5 (purple), hA6 (orange), ancA5/A6 (green), and human S100A9 (black). S100A9 is a negative control, because it is evolutionarily distant from hA5 and hA6 and would thus not be expec ted to bind to the probe […]

hA6 = test: as above; assay type: binding, human; details: 0.03 μM probe, 0 to ≈200 μM protein, 2 mM CaCl2, then 5 mM EDTA added
Text: as §1, §8, §9, §10

ancA5/A6 = test: as above; assay type: binding; details: 0.03 μM probe, 0 to ≈200 μM protein, 2 mM CaCl2, then 5 mM EDTA added
Text: as §1, §8, §9, §10

[3] = test system: ancA5/A6 (reconstructed last common ancestor of S100A5 and S100A6); test: Quantitative phage display enrichment with/without competitor peptide; assay type: binding; details: ancA5/A6 (aA5A6 in csv); E=−ln(cnon-competitor/ccompetitor); panning in 2 mM Ca2+, elution 5 mM EDTA; 20 μM competitor; E≤−1.5 taken as binder
Text: (§11) We next set out to measure the binding of S100 proteins to this library of random 12-mer peptides. The S100 peptide-binding interface is only exposed upon Ca^2+ -binding (fig. 1A); therefore, we performed phage panning experiments in the presence of saturating Ca^2+ and then eluted the bound phage using saturating ethylenediaminetetraacetic acid (EDTA) (fig. 2B). After this panning step, the population of enriched phage particles will be a mixture of those that bind at the site of interest and those that bind adventitiously (blue and purple phage, fig. 2B) ([Sidhu et al. 2000]; [Willats 2002]). To separate these populations, we repeated the panning experiment in the presence of a saturating concentration of competitor peptide known to bind at the site of interest ([…], fig. 2C) ([Wheeler et al. 2018]). This should lower the enrichment of peptides that bind at the site of interest, while allowing any adventitious interactions to remain. By comparing the competitor and noncompetitor pools, we can distinguish between specific and adventitious binders.
(§12) After panning, we sequenced the resulting phage pools using Illumina sequencing. […] We estimated changes in the frequencies of peptides between samples with and without competitor peptide (supplementary fig. S3, Supplementary Material online). For each peptide, we determined E: (1) E=−ln(cnon-competitor/ccompetitor) where ccompetitor and cnon-competitor are the sequence counts for the peptide recovered from parallel Ca^2+/EDTA panning experiments done with and without competitor peptides.
(§13) If E < 0, the competitor peptide interferes with the Ca^2+ -dependent enrichment of the peptide. […] If E > 0, the competitor peptide improves Ca^2+ -dependent enrichment of the phage peptide. This could occur if the phage peptide binds more favorably to the S100/competitor peptide complex than the S100 alone. […]
(§14) Phage display experiments were performed using the PhD-12 peptide phage display kit (NEB). […] Eluates were tittered to quantify eluted phage as follows. […]

hA5 (human S100A5) [4] = biological target: T1, hA5 (human S100A5); test: as above; assay type: binding; details: E=−ln(cnon-competitor/ccompetitor), panning in 2 mM Ca2+, elution 5 mM EDTA, 20 μM competitor, E≤−1.5 taken as binder
Text: as §11, §12, §13, §14

hA6 (human S100A6) [5] = biological target: T2, hA6 (human S100A6); test: as above; assay type: binding; details: E=−ln(cnon-competitor/ccompetitor), panning in 2 mM Ca2+, elution 5 mM EDTA, 20 μM competitor, E≤−1.5 taken as binder
Text: as §11, §12, §13, §14

## SRQTTSTHEWVVGGSAE [phage_ctl_4]
hA5 (human S100A5) [1]
  Kd (KD,peptide): No model could be reliably fit
hA6 (human S100A6) [2]
  Kd: 102 µM

## HVQWRDRNVIEWGGSAE [phage_ctl_6]
hA5 (human S100A5) [1]
  Kd: 123 µM

## 5FAM-GFDWRWGMEALTGGGSAE [probe]
hA5
  calcium dependence of probe binding: bound in a calcium-dependent manner
hA6
  calcium dependence of probe binding: bound in a calcium-dependent manner
ancA5/A6
  calcium dependence of probe binding: bound in a calcium-dependent manner

## SSSTYPGFRQSTGGSAE [phage_ctl_8]
hA6 (human S100A6) [2]
  Kd: 202 µM

## GWLEQYFSRTADGGSAE [phage_ctl_2]
hA5 (human S100A5) [1]
  Kd: 18.6 µM
hA6 (human S100A6) [2]
  Kd: 14.6 µM

## EGLDLMSILELIGGSAE [phage_ctl_0]
hA5 (human S100A5) [1]
  Kd: 47.2 µM
hA6 (human S100A6) [2]
  Kd: 48.7 µM

## RHGFLQDILFKLGGSAE [phage_ctl_1]
hA5 (human S100A5) [1]
  Kd: 36.4 µM
hA6 (human S100A6) [2]
  Kd: 61.7 µM

## GEVTNYGYLVDQGGSAE [phage_ctl_7]
hA6 (human S100A6) [2]
  Kd: 42.7 µM

## EQPLLKYLQLMRGGSAE [phage_ctl_5]
hA5 (human S100A5) [1]
  Kd: 85.8 µM

## SGPSDWLHKGVLGGSAE [phage_ctl_9, phage display 12-mer peptide with C-terminal flank, ordered as synthetic test peptide]
[3]
  E (enrichment): 5.052
hA5 (human S100A5) [4]
  E (enrichment): 0.5882
hA6 (human S100A6) [5]
  E (enrichment): 0.5131
